# According to patent publication US5585353A, “Antibiotic peptides containing D-amino acids” (The Rockefeller University, priority 1994, dated 1996):
# Like-named read-outs stand apart in the source and are kept apart here. Residues, ends and D or L forms follow the SMILES beside them. No end group written: not given here.
# How the values were obtained:
# E. coli D21 = experiment: inhibition zone assay, lethal concentration; format: cell-based; settings: E. coli D21, thin agarose plates
# Method: (§1) Thin agar or agarose plates (8.5 cm diameter) were prepared with 6 ml of rich medium containing 100 ug/ml of streptomycin and 2×10^5 viable cells of a test organism resistant to streptomycin. Wells of 3.5 mm diameter were punched in the plates and 3 ul of serially diluted samples were placed in the wells. The diameters of the zones of inhibition around the wells were measured after overnight incubation at 30° or 37° C. For each peptide the squares of the zone diameters were plotted against the logarithm of the concentration, and from the slopes and intercepts the lethal concentrations were calculated as described by Hultmark (1983) EMBO J. 2, 571-76 or Hultmark et al (1982) Eur. J. Biochem. 127 207-217 each of which being incorporated herein by reference.
# (§2) Lethal Concentrations calculated from inhibition zones on thin agarose
# (§3) plates seeded with the respective organisms. D21: E. coli; OT97: P.
# P. aeruginosa OT97 = experiment: inhibition zone assay, lethal concentration; format: cell-based; settings: P. aeruginosa OT97, thin agarose plates
# Method: as §1, §2, §3
# (§4) aeruginosa; Bs11: B. subtilis; +ME: plates prepared with medium E; Staph: […]
# B. subtilis Bs11 = experiment: inhibition zone assay, lethal concentration; format: cell-based; settings: for Lethal Concentrations Bs11 +ME: B. subtilis Bs11, plates prepared with medium E; for Lethal Concentrations Bs11: B. subtilis Bs11, thin agarose plates
# Method: as §1, §2, §4
# S. aureus Cowan 1 = experiment: inhibition zone assay, lethal concentration; format: cell-based; settings: S. aureus Cowan 1, thin agarose plates
# Method: as §1, §2
# aeruginosa; Bs11: B. subtilis; +ME: plates prepared with medium E; Staph:
# (§5) S. aureus Cowan 1; Strep: S. pyogenes; SRC: Sheep red cells.; *all amino
# S. pyogenes = experiment: inhibition zone assay, lethal concentration; format: cell-based; settings: thin agarose plates
# Method: as §1, §2, §5
# Sheep red cells = experiment: inhibition zone assay, lethal concentration on sheep red cells; format: cell-based; settings: thin agarose plates
# Method: as §1, §2, §5
# [1] = biological target: immune inhibitor A (In A) (Bacillus thuringiensis subsp. alesti, UniProt P23382); format: in vitro ADME; settings: 20 min at 36° C.; for Zone of inhibition: E. coli D21 plates
# Method: (§6) FIGS. 1 and 2 graphically illustrate the resistance of the compounds of this invention to enzymatic hydrolysis by trypsin or immune inhibitor A (In A). The experiments were conducted as follows:
# (§7) The original solutions of the enzymes contained 5 mg/ml in the case of trypsin and 0.1 mg/ml in the case of InA. These two samples were diluted as follows: A 10^-1, B 10^-2, C 10^-3 and D 10^-4. From each dilution, 2 ul were mixed with 2 ul of two peptides (D-CA and L-CA, both containing 1.3 ug/ul=162 pmol/ul). Control mixtures were made with 2 ul water and 2 ul peptide. All samples were incubated for 20 min at 36° C. Before and after the incubation, all samples were kept on ice. After the incubation 3 ul were placed in wells on plates seeded with E. coli D21 in order the determine the amount of antibiotic that was left. The diameter of the inhibition zone was recorded and compared with a previously prepared a standard curve. Results are as given in the table and illustrated in the figures.
# [2] = tested on: immune inhibitor A (In A); format: in vitro ADME; settings: InA series, Control (no Enzyme), 20 min at 36° C.; for Zone of inhibition: peptide with water
# Method: as §6, §7
# trypsin = experiment: proteolytic resistance to trypsin, residual antibiotic by inhibition zone on E. coli D21; format: in vitro ADME; settings: 20 min at 36° C.
# Method: as §6, §7
# [3] = InA dilution A (10^-1 of 0.1 mg/ml)
# [4] = Trypsin dilution A (10^-1 of 5 mg/ml), E. coli D21 plates
# [5] = Trypsin dilution B (10^-2), E. coli D21 plates
# [6] = Trypsin dilution C (10^-3), E. coli D21 plates
# [7] = Trypsin dilution D (10^-4), E. coli D21 plates
# [8] = Trypsin series, Control (no enzyme)
# [9] = Trypsin series, Control (no enzyme), peptide with water
# immune inhibitor A (In A) (Bacillus thuringiensis subsp. alesti, UniProt P23382), sequence (P23382 41-687): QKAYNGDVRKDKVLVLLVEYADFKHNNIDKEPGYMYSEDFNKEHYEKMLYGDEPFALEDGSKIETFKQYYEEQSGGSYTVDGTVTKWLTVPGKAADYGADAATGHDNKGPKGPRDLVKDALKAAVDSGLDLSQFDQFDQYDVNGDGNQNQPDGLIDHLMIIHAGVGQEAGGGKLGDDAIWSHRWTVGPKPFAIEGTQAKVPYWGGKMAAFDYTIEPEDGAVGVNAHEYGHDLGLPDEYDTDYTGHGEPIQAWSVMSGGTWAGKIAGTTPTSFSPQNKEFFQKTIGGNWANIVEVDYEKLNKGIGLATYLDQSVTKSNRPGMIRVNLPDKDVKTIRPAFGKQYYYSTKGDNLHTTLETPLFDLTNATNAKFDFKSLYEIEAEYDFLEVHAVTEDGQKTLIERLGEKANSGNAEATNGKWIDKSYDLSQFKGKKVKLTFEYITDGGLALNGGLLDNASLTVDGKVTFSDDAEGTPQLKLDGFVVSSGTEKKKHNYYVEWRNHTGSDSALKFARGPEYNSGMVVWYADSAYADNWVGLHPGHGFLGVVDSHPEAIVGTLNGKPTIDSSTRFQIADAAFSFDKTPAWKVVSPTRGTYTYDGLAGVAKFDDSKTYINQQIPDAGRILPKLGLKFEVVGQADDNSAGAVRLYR
compound,measurement,setting,value
CC[C@@H](C)[C@@H](NC(=O)CNC(=O)[C@@H](CC(=O)O)NC(=O)[C@@H](CCCNC(=N)N)NC(=O)[C@H](NC(=O)[C@@H](CC(N)=O)NC(=O)[C@@H](CCC(N)=O)NC(=O)CNC(=O)[C@H](NC(=O)[C@@H](CCCCN)NC(=O)[C@@H](CCC(=O)O)NC(=O)[C@H](NC(=O)[C@@H](CCCCN)NC(=O)[C@@H](CCCCN)NC(=O)[C@@H](Cc1ccccc1)NC(=O)[C@@H](CC(C)C)NC(=O)[C@@H](CCCCN)NC(=O)[C@@H](Cc1c[nH]c2ccccc12)NC(=O)[C@H](N)CCCCN)[C@H](C)CC)C(C)C)[C@H](C)CC)C(=O)N[C@@H](C(=O)N[C@H](CCCCN)C(=O)N[C@H](C)C(=O)NCC(=O)N1CCC[C@@H]1C(=O)N[C@H](C)C(=O)N[C@@H](C(=O)N[C@H](C)C(=O)N[C@@H](C(=O)N[C@@H](C(=O)NCC(=O)N[C@H](CCC(N)=O)C(=O)N[C@H](C)C(=O)N[C@@H](C(=O)N[C@H](CCC(N)=O)C(=O)N[C@@H](C(=O)N[C@H](C)C(=O)N[C@H](CCCCN)C(N)=O)[C@H](C)CC)[C@H](C)O)C(C)C)C(C)C)C(C)C)[C@H](C)CC [Compound 2] (HELM PEPTIDE1{[dK].[dW].[dK].[dL].[dF].[dK].[dK].[dI].[dE].[dK].[dV].G.[dQ].[dN].[dI].[dR].[dD].G.[dI].[dI].[dK].[dA].G.[dP].[dA].[dV].[dA].[dV].[dV].G.[dQ].[dA].[dT].[dQ].[dI].[dA].[dK].[am]}$$$$V2.0),Lethal Concentrations D21,E. coli D21,0.3 µM
same,Lethal Concentrations OT97,P. aeruginosa OT97,0.8 µM
same,Lethal Concentrations Bs11 +ME,B. subtilis Bs11,30 µM
same,Lethal Concentrations Bs11,B. subtilis Bs11,3 µM
same,Lethal Concentrations Staph,S. aureus Cowan 1,> 300 µM
same,Lethal Concentrations Strep,S. pyogenes,2 µM
same,Lethal Concentrations SRC,Sheep red cells,> 300 µM
same,Amount of peptide left,[1]; InA dilution A (10^-1),512 pmol
same,Conc.,[1]; InA dilution A (10^-1),171 µM
same,Percent remaining,[1]; InA dilution A (10^-1),106%
same,Zone of inhibition,[1]; [3],1.54 cm
same,Amount of peptide left,[1]; InA dilution B (10^-2),468 pmol
same,Conc.,[1]; InA dilution B (10^-2),156 µM
same,Percent remaining,[1]; InA dilution B (10^-2),96%
same,Zone of inhibition,[1]; InA dilution B (10^-2),1.52 cm
same,Amount of peptide left,[1]; InA dilution C (10^-3),468 pmol
same,Conc.,[1]; InA dilution C (10^-3),156 µM
same,Percent remaining,[1]; InA dilution C (10^-3),96%
same,Zone of inhibition,[1]; InA dilution C (10^-3),1.52 cm
same,Amount of peptide left,[1]; InA dilution D (10^-4),448 pmol
same,Conc.,[1]; InA dilution D (10^-4),149 µM
same,Percent remaining,[1]; InA dilution D (10^-4),92%
same,Zone of inhibition,[1]; InA dilution D (10^-4),1.51 cm
same,Amount of peptide left,[2],535 pmol
same,Conc.,[2],178 µM
same,Percent remaining,[2],110%
same,Zone of inhibition,[2],1.55 cm
same,Amount of peptide left,trypsin; Trypsin dilution A (10^-1),535 pmol
same,Conc.,trypsin; Trypsin dilution A (10^-1),178 µM
same,Percent remaining,trypsin; Trypsin dilution A (10^-1),110%
same,Zone of inhibition,trypsin; [4],1.55 cm
same,Amount of peptide left,trypsin; Trypsin dilution B (10^-2),489 pmol
same,Conc.,trypsin; Trypsin dilution B (10^-2),163 µM
same,Percent remaining,trypsin; Trypsin dilution B (10^-2),101%
same,Zone of inhibition,trypsin; [5],1.53 cm
same,Amount of peptide left,trypsin; Trypsin dilution C (10^-3),512 pmol
same,Conc.,trypsin; Trypsin dilution C (10^-3),171 µM
same,Percent remaining,trypsin; Trypsin dilution C (10^-3),106%
same,Zone of inhibition,trypsin; [6],1.54 cm
same,Amount of peptide left,trypsin; Trypsin dilution D (10^-4),489 pmol
same,Conc.,trypsin; Trypsin dilution D (10^-4),163 µM
same,Percent remaining,trypsin; Trypsin dilution D (10^-4),101%
same,Zone of inhibition,trypsin; [7],1.53 cm
same,Amount of peptide left,trypsin; [8],512 pmol
same,Conc.,trypsin; [8],171 µM
same,Percent remaining,trypsin; [8],106%
same,Zone of inhibition,trypsin; [9],1.54 cm
"KWKLFKKIEKVGQNIRDGIIKAGPAVAVVGQATQIAK-NH2 [Compound 1, Cecropin A]",Lethal Concentrations D21,E. coli D21,0.2 µM
same,Lethal Concentrations OT97,P. aeruginosa OT97,1 µM
same,Lethal Concentrations Bs11 +ME,B. subtilis Bs11,60 µM
same,Lethal Concentrations Bs11,B. subtilis Bs11,3 µM
same,Lethal Concentrations Staph,S. aureus Cowan 1,> 300 µM
same,Lethal Concentrations Strep,S. pyogenes,5 µM
same,Lethal Concentrations SRC,Sheep red cells,> 200 µM
same,Amount of peptide left,[1]; InA dilution A (10^-1),0 pmol
same,Conc.,[1]; InA dilution A (10^-1),0 µM
same,Percent remaining,[1]; InA dilution A (10^-1),0%
same,Zone of inhibition,[1]; [3],None
same,Amount of peptide left,[1]; InA dilution B (10^-2),316 pmol
same,Conc.,[1]; InA dilution B (10^-2),105 µM
same,Percent remaining,[1]; InA dilution B (10^-2),65%
same,Zone of inhibition,[1]; InA dilution B (10^-2),1.42 cm
same,Amount of peptide left,[1]; InA dilution C (10^-3),442 pmol
same,Conc.,[1]; InA dilution C (10^-3),147 µM
same,Percent remaining,[1]; InA dilution C (10^-3),91%
same,Zone of inhibition,[1]; InA dilution C (10^-3),1.48 cm
same,Amount of peptide left,[1]; InA dilution D (10^-4),469 pmol
same,Conc.,[1]; InA dilution D (10^-4),156 µM
same,Percent remaining,[1]; InA dilution D (10^-4),96%
same,Zone of inhibition,[1]; InA dilution D (10^-4),1.49 cm
same,Amount of peptide left,[2],469 pmol
same,Conc.,[2],156 µM
same,Percent remaining,[2],96%
same,Zone of inhibition,[2],1.49 cm
same,Amount of peptide left,trypsin; Trypsin dilution A (10^-1),0 pmol
same,Conc.,trypsin; Trypsin dilution A (10^-1),0 µM
same,Percent remaining,trypsin; Trypsin dilution A (10^-1),0%
same,Zone of inhibition,trypsin; [4],None
same,Amount of peptide left,trypsin; Trypsin dilution B (10^-2),0 pmol
same,Conc.,trypsin; Trypsin dilution B (10^-2),0 µM
same,Percent remaining,trypsin; Trypsin dilution B (10^-2),0%
same,Zone of inhibition,trypsin; [5],None
same,Amount of peptide left,trypsin; Trypsin dilution C (10^-3),34 pmol
same,Conc.,trypsin; Trypsin dilution C (10^-3),11 µM
same,Percent remaining,trypsin; Trypsin dilution C (10^-3),6.8%
same,Zone of inhibition,trypsin; [6],0.93 cm
same,Amount of peptide left,trypsin; Trypsin dilution D (10^-4),131 pmol
same,Conc.,trypsin; Trypsin dilution D (10^-4),44 µM
same,Percent remaining,trypsin; Trypsin dilution D (10^-4),27%
same,Zone of inhibition,trypsin; [7],1.25 cm
same,Amount of peptide left,trypsin; [8],373 pmol
same,Conc.,trypsin; [8],124 µM
same,Percent remaining,trypsin; [8],77%
same,Zone of inhibition,trypsin; [9],1.45 cm
